Test results: US20250011404A1, “TARGETING APOE ENHANCES T-CELL KILLING IN CANCER IMMUNOTHERAPY” (Children's National Medical Center, priority 2021, published 2025)

Tested on: mouse apoE gene
Assay: gRNA screening by next generation sequencing for INDEL frequency in B16-F10 cells
Assay type: cell-based
Settings: RNP electroporated into B16-F10 cells; NGS
Experimental: Six guide RNAs (gRNAs) were designed using IDT's gRNA design tool, targeting the mouse apoE gene. gRNAs were synthesized as 2-part crRNA: tracrRNA gRNAs with chemical modifications (Integrated DNA Technologies, Inc., IA) and were functionally screened by next generation sequencing (NGS) for high INDEL (insertion/deletion) frequency and low in-frame INDEL rates. gRNAs were prepared by complexing a 1:1 molar ratio of the crRNA: tracrRNA at a final concentration of 100 μM, heating to 95° C. and slowly cooling to room temperature. […]
The electroporated cells were plated in 1 well of a 6-well plate and allowed to grow until confluent. The cells were then dissociated by trypsinization, resuspended in media, and counted. […] The genomic DNA from each well was subject to quantification of total editing and analysis of INDEL profile by NGS to confirm a monoclonal isolate.
Genomic DNA libraries for sequencing were prepared using IDT rhAmpSeq targeted amplification. […] Libraries were purified using Agencourt® AMPure® XP system (Beckman Coulter, Brea, CA, USA) with a 1:1 ratio of beads to reaction by volume and quantified with quantitative real-time PCR (qPCR) before loading onto the Illumina® MiSeq platform (Illumina, San Diego, CA, USA). Paired end 150 base pair reads were sequenced using V2 chemistry. A sequencing depth of at least 1000 reads was obtained for each sample. […]

For “GGACACTATGACGGAAGTAA (listed as DNA, chemistry not given here) [Mm. Cas9.APOE.1-E]”, the INDEL frequency was 99% and the “in-frame INDELs” value was “no”.
